Measurements taken from patent US5229410A, “6-substituted-hexahydrobenz[cd]indoles” (Eli Lilly and Company, priority 1991, dated 1993).
Where two headings read alike, the source gives them in different places.

Columns and labels:
[1] = target: T1, central 5-HT1D binding sites (Bos taurus, UniProt F1MGM3); experiment: 5-HT1D binding ([3H]5-HT displacement, bovine caudate nuclei membranes)
T1 construct: Bovine brains were obtained from Pel-Freeze Biologicals, and the caudate nuclei were dissected out; tissue Pel-Freeze Biologicals; host or cells: bovine caudate nuclei (washed membranes)
Method: The affinities of the compounds at the central 5-HT1D binding sites were determined using a modification of the binding assay described by Heuring and Peroutka (J. Neurosci. 7:894-903, 1987). Bovine brains were obtained from Pel-Freeze Biologicals, and the caudate nuclei were dissected out and frozen at -70° C. until the time that the membranes were prepared for the binding assays. At that time the tissues were homogenized in 40 volumes of ice-cold Tris-HCl buffer (50 mM, pH 7.4 at 22° C.) with a Techmar Tissumizer (setting 65 for 15 sec), and the homogenate was centrifuged at 39,800 g for 10 min. The resulting pellet was then resuspended in the same buffer, and the centrifugation and resuspension process was repeated three additional times to wash the membranes. Between the second and third washes the resuspended membranes were incubated for 10 min at 37° C. to facilitate the removal of endogenous 5-HT. The final pellet was resuspended in Tris buffer to a concentration of 25 mg of original tissue wet weight/ml for use in the binding assay. […] The assay tubes were incubated for 10 min at 37° C., and the contents were then rapidly filtered through GF/B filters (pretreated with 0.5% polyethylenimine), followed by four one-mL washes with ice-cold buffer. The radioactivity trapped by the filters was quantitated by liquid scintillation spectrometry, and specific [^3 H]5-HT binding to the 5-HT1D sites was defined as the difference between [^3 H]5-HT bound in the presence and absence of 10 μM 5-HT.
The affinities of compounds at the 5-HT1D receptor are expressed as IC50 values, i.e., the concentration required to inhibit 50% of the binding. These values were determined from 12-point competition curves using nonlinear regression (SYSTAT, SYSTAT, Inc., Evanston, Ill.).

central 5-HT1A receptors = target: T2, central 5-HT1A receptors (Rattus norvegicus, UniProt P19327); experiment: 5-HT1A receptor binding ([3H]8-OH-DPAT displacement, rat hippocampal membranes); set-up: species or system male Sprague-Dawley rats
T2 construct: the brains were rapidly chilled and dissected to obtain the hippocampi; from tissue; host or cells: hippocampus of male Sprague-Dawley rats (washed membranes)
T2 sequence (P19327 1-422): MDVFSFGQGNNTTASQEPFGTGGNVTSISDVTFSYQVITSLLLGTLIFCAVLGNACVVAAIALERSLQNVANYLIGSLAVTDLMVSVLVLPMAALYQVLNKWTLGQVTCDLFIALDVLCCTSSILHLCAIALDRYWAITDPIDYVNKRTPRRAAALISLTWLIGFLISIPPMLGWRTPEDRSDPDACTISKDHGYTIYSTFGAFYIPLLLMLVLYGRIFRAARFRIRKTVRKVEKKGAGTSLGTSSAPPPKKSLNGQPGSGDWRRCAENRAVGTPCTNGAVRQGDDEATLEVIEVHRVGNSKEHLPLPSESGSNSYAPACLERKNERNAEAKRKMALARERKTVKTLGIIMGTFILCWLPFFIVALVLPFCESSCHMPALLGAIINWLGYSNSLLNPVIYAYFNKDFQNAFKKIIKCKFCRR
Method: The affinities of the compounds at the central 5-HT1A receptors were determined using a modification of the binding assay described by Taylor, et al., (J. Pharmacol. Exp. Ther. 236:118-125, 1986). Membranes for the binding assay were prepared from male Sprague-Dawley rats (150-250 g). The animals were killed by decapitation, and the brains were rapidly chilled and dissected to obtain the hippocampi. The hippocampi were either prepared that day or stored frozen (-70° C.) until the day of preparation. Membranes were prepared by homogenizing the tissue in 40 volumes of ice-cold Tris-HCl buffer (50 mM, pH 7.4 at 22° C.) using a Techmar Tissumizer (setting 65 for 15 sec), and the homogenate was centrifuged at 39800×g for 10 min. The resulting pellet was then resuspended in the same buffer, and the centrifugation and resuspension process was repeated three additional times to wash the membranes. Between the second and third washes the resuspended membranes were incubated for 10 min at 37° C. to facilitate the removal of endogenous ligands. The final pellet was resuspended in 67 mM Tris-HCl, pH 7.4, to a concentration of 2 mg of tissue original wet weight/200 μl. This homogenate was stored frozen (-70° C.) until the day of the binding assay. […] The assay tubes were incubated for 10 min at 37° C., and the contents were then rapidly filtered through GF/B filters (pretreated with 0.5% polyethylenimine), followed by four one-mL washes with ice cold buffer. The radioactivity trapped by the filters was quantitated by liquid scintillation spectrometry, and specific [^3 H]8-OH-DPAT binding to the 5-HT1A sites was defined as the difference between [^3 H]8-OH-DPAT bound in the presence and absence of 10 μM 5-HT.
The affinity of the particular compound at the 5-HT1A receptor is expressed as IC50 value, i.e., the concentration required to inhibit 50% of the binding. The IC50 values were determined from 12-point competition curves using nonlinear regression (SYSTAT, SYSTAT, INC., Evanston, Ill.).

Brain 5-hydroxyindoles = experiment: brain 5-hydroxyindoles in vivo after subcutaneous injection; set-up: species or system male albino rats; settings: 1 hour, * = P<0.05 vs control
Method: (§1) Certain compounds were evaluated to determine their ability to affect the 5-hydroxyindoles serotonin, 5-hydroxyindole acetic acid (5HIAA) and serum corticosterone, in vivo, using the following procedures.
(§2) Compounds in aqueous solution were injected subcutaneously into male albino rats. Rats were decapitated one hour later. Trunk blood was collected and allowed to clot; after centrifugation, serum was stored frozen prior to analysis. Whole brain was removed and frozen on dry ice, then stored frozen prior to analysis. Serum corticosterone concentration was measured spectrofluorometrically (J. H. Solem and T. Brinch-Johnsen, "An evaluation of a method for determination of free corticosteroids in minute quantities of mouse plasma," Scand. J. Clin. Lab. Invest. (Suppl. 80), 1.14 (1965).) 5-Hydroxyindoleacetic acid (5HIAA) concentration in whole brain was measured by liquid chromatography with electrochemical detection. (Ray W. Fuller and Kenneth W. Perry, "Effects of buspirone and its metabolite, 1-(2-pyrimidinyl)piperazine, on brain monoamines and their metabolites in rats", J. Pharmacol. Exp. Ther. 248, 50-56 (1989).) The results are provided in Table III.

serum corticosterone = serum corticosterone in vivo after subcutaneous injection; set-up: species or system male albino rats; settings: 1 hour, * = P<0.05 vs control
Method: as §1, §2

[2] = [3H]5-HT 1.7-1.9 nM, bovine caudate, 8-OH-DPTA and mesulergine 100 nM as masks, pH 7.4, 37° C., 10 min, read-out: 5HT1D IC50 (concentration required to inhibit 50% of the binding)
[3] = [3H]8-OH-DPAT 1.0 nM, rat hippocampi, pH 7.4, 37° C., 10 min, read-out: 5HT1A IC50 (concentration required to inhibit 50% of the binding)

T1 sequence (F1MGM3 1-403): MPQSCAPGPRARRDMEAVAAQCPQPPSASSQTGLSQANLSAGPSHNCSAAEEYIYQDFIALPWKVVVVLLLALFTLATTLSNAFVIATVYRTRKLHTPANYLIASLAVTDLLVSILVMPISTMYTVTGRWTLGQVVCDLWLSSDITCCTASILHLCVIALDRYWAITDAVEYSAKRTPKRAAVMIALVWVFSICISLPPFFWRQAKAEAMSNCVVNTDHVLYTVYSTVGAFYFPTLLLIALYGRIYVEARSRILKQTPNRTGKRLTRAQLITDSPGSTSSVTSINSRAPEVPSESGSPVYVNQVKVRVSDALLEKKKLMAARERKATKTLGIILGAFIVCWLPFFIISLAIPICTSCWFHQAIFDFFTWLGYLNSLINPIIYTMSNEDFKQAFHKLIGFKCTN

| SMILES | IC50 [1] | IC50 (central 5-HT1A receptors) | Brain 5-HIAA (Brain 5-hydroxyindoles; 0.003 mg/Kg s.c.) | Brain serotonin (Brain 5-hydroxyindoles; 0.003 mg/Kg s.c.) | Brain 5-HIAA (Brain 5-hydroxyindoles; 0.03 mg/Kg s.c.) | Brain serotonin (Brain 5-hydroxyindoles; 0.03 mg/Kg s.c.) | Brain 5-HIAA (Brain 5-hydroxyindoles; 0.3 mg/Kg s.c.) | Brain serotonin (Brain 5-hydroxyindoles; 0.3 mg/Kg s.c.) | Serum Corticosterone (serum corticosterone; 0.003 mg/Kg s.c.) | Serum Corticosterone (serum corticosterone; 0.03 mg/Kg s.c.) | Serum Corticosterone (serum corticosterone; 0.3 mg/Kg s.c.) | IC50 [1, 2] | IC50 (central 5-HT1A receptors; [3]) |
| --- | --- | --- | --- | --- | --- | --- | --- | --- | --- | --- | --- | --- | --- |
| CCCN(CCC)[C@H]1Cc2c(C(C)=O)ccc3c2[C@@H](CN3)C1 (relative stereo) [Example 3, 6-acetyl-4-(di-n-propylamino)-1,2,2a,3,4,5-hexahydrobenz[cd]indole] | 7.47 nM | 0.63 nM |  |  |  |  |  |  |  |  |  |  |  |
| CCCN(CCC)C1Cc2c(C(=O)C(C)C)ccc3c2C(CN3)C1 (single isomer, unassigned; (-)) [Example 9, (-)-6-(2-methylpropanoyl)-4-(di-n-propylamino)-1,2,2a,3,4,5-hexahydrobenz[cd]indole] |  |  | 1.68 ± 0.10 n moles/g | 1.83 ± 0.08 n moles/g | 1.91 ± 0.06 n moles/g | 1.90 ± 0.10 n moles/g | 1.74 ± 0.04 n moles/g | 1.69 ± 0.06 n moles/g | 4.1 ± 0.5 μg/100 ml | 6.0 ± 1.6 μg/100 ml | 6.7 ± 2.0 μg/100 ml | 3130 nM | 54.9 nM |
| CCCN(CCC)[C@H]1Cc2c(C(C)=O)ccc3c2[C@H](CN3)C1 [Example 4, (2aR,4R)-6-acetyl-4-(di-n-propylamino)-1,2,2a,3,4,5-hexahydrobenz[cd]indole] |  |  |  |  |  |  |  |  |  |  |  | 236 nM | 0.8 nM |
| CCCN(CCC)[C@@H]1Cc2c(C(C)=O)ccc3c2[C@@H](CN3)C1 [Example 5, (2aS,4S)-6-acetyl-4-(di-n-propylamino)-1,2,2a,3,4,5-hexahydrobenz[cd]indole] |  |  |  |  |  |  |  |  |  |  |  | 129 nM | 0.31 nM |
| CCCN(CCC)[C@H]1Cc2c(C(C)=O)ccc3c2[C@@H](CN3)C1 [Example 6, (+)-(2aS,4R)-6-acetyl-4-(di-n-propylamino)-1,2,2a,3,4,5-hexahydrobenz[cd]indole] |  |  | 1.81 ± 0.14 n moles/g | 2.46 ± 0.14 n moles/g | 1.58 ± 0.08 n moles/g | 2.99 ± 0.06 n moles/g | 1.41 ± 0.03 n moles/g | 3.08 ± 0.04 n moles/g | 5.8 ± 1.0 μg/100 ml | 10.6 ± 2.0 μg/100 ml | 42.2 ± 1.1 μg/100 ml | 6.25 nM | 0.3 nM |
| CCCN(CCC)[C@@H]1Cc2c(C(C)=O)ccc3c2[C@H](CN3)C1 [Example 7, (-) (2aR,4S)-6-acetyl-4-(di-n-propylamino)-1,2,2a,3,4,5-hexahydrobenz[cd]indole] |  |  | 2.06 ± 0.13 n moles/g | 2.75 ± 0.05 n moles/g | 1.87 ± 0.07 n moles/g | 2.57 ± 0.10 n moles/g | 1.77 ± 0.17 n moles/g | 2.85 ± 0.08 n moles/g | 3.8 ± 0.5 μg/100 ml | 6.5 ± 2.6 μg/100 ml | 8.4 ± 4.0 μg/100 ml | 8500 nM | 6.61 nM |
| CCCN(CCC)[C@H]1Cc2c(C(=O)C(C)C)ccc3c2[C@@H](CN3)C1 [Example 8, (+)-(2aS,4R)-6-(2-methylpropanoyl)-4-(di-n-propylamino)-1,2,2a,3,4,5-hexahydrobenz[cd]indole] |  |  | 1.56 ± 0.10 n moles/g | 1.88 ± 0.05 n moles/g | 1.34 ± 0.06 n moles/g | 2.26 ± 0.06 n moles/g | 1.30 ± 0.07 n moles/g | 2.26 ± 0.16 n moles/g | 3.6 ± 0.7 μg/100 ml | 27.1 ± 6.4 μg/100 ml | 42.0 ± 0.4 μg/100 ml | 1.24 nM | 0.25 nM |
| CCCN(CCC)[C@@H]1Cc2c(C(=O)CC)ccc3c2[C@H](CN3)C1 [Example 10, (-)-(2aR,4S)-6-(propanoyl)-4-(di-n-propylamino)-1,2,2a,3,4,5-hexahydrobenz[cd]indole] |  |  |  |  |  |  |  |  |  |  |  | 9000 nM | 9.47 nM |
| CCCN(CCC)[C@H]1Cc2c(C(=O)c3ccccc3)ccc3c2[C@@H](CN3)C1 [Example 12, (+)-(2aS,4R)-6-(benzoyl)-4-(di-n-propylamine)-1,2,2a,3,4,5-hexahydrobenz[cd]indole] |  |  |  |  |  |  |  |  |  |  |  | 1.78 nM | 0.34 nM |
| CCCN(CCC)[C@H]1Cc2c(C(=O)Cc3ccccc3)ccc3c2[C@@H](CN3)C1 [Example 13, (+)-(2aS,4R)-6-(2-phenylethanoyl)-4-(di-n-propylamino)-1,2,2a,3,4,5-hexahydrobenz[cd]indole] |  |  |  |  |  |  |  |  |  |  |  | 2.7 nM | 0.98 nM |
